# Patent publication US10899747B2, “Biaryl piperidine amide compounds and methods of use thereof” (Athenex, Inc., priority 2017, dated 2021)
# Tested on: IL-2
# Assay: PHA-IL2 (cell activation and cytokine analysis)
# Format: cell-based
# Settings: 50% inhibition concentration class
# How it was run: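 Cells were seeded in 96-well plates at 1.0-2.0×10^6 cells/ml in 150 ul of RPMI containing 0.5% fetal calf serum. Test compounds, at up to ≤20 uM, were preincubated with the cells for 30 minutes, then phytohemagglutinin (PHA) was added and cultures were stimulated for 24-48 hours at 37 degrees C./5% CO2. Supernatant IL-2 was then quantified by standard ELISA.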
row,SMILES,IC50 [nM]
1,N#Cc1ccc(-c2cc(C#N)ccc2OCC(=O)N2CCC(CCc3ccc4c(c3)OCO4)CC2)cc1 [Compound 420],< 1000
2,CC(C)Oc1cccc(CCC2CCN(C(=O)COc3ccccc3-c3ccc(C(=O)c4ccc(O)cc4)cc3)CC2)c1 [Compound 421],1000 to 10000
3,Cc1ccc(-c2ccccc2OCC(=O)N2CCC(CCc3ccccc3)CC2)nn1 [Compound 422],< 1000
4,O=C(COc1ccccc1-c1cnccn1)N1CCC(CCc2ccccc2)CC1 [Compound 423],1000 to 10000
5,Cc1cnc(-c2ccccc2OCC(=O)N2CCC(CCc3ccccc3)CC2)cn1 [Compound 424],1000 to 10000
6,Cc1cnc(C#CC2CCN(C(=O)COc3ccc(C#N)cc3-c3ccc(C#N)cc3)CC2)cn1 [Compound 425],1000 to 10000
7,Cc1cnc(CCC2CCN(C(=O)COc3ccc(C#N)cc3-c3ccc(C#N)cc3)CC2)cn1 [Compound 426],1000 to 10000
8,CC(C)Oc1ccccc1CCC1CCN(C(=O)COc2ccccc2-c2ccc(C#N)cc2)CC1 [Compound 427],< 1000
9,Cc1ccc(C#CC2CCN(C(=O)COc3ccc(C#N)cc3-c3ccc(C#N)cc3)CC2)nn1 [Compound 428],1000 to 10000
10,N#Cc1ccc(-c2cc(C#N)ccc2OCC(=O)N2CCC(C#Cc3cnccn3)CC2)cc1 [Compound 429],1000 to 10000
11,CC(C)Oc1ccc(CCC2CCN(C(=O)COc3ccccc3-c3ccc(C#N)cc3)CC2)cc1 [Compound 430],< 1000
12,CC(C)Oc1ccccc1CCC1CCN(C(=O)COc2ccccc2-c2ccc(F)cc2O)CC1 [Compound 431],< 1000
13,CC(C)Oc1ccc(CCC2CCN(C(=O)COc3ccccc3-c3ccc(F)cc3O)CC2)cc1 [Compound 432],< 1000
14,Cc1nc2cc(-c3ccccc3OCC(=O)N3CCC(CCc4ccc(OC(C)C)cc4)CC3)ccc2[nH]1 [Compound 433],< 1000
15,N#Cc1ccc(-c2ccccc2OCC(=O)N2CCC(CCc3cccc(OC(F)F)c3)CC2)cc1 [Compound 434],< 1000
16,O=C(COc1ccccc1-c1ccc(F)cc1O)N1CCC(CCc2cccc(OC(F)F)c2)CC1 [Compound 435],< 1000
17,N#Cc1ccc(-c2cc(C#N)ccc2OCC(=O)N2CCC(CCc3cccc(OC(F)F)c3)CC2)cc1 [Compound 436],< 1000
18,N#Cc1ccc(OCC(=O)N2CCC(CCc3cccc(OC(F)F)c3)CC2)c(-c2ccc(F)cc2O)c1 [Compound 437],< 1000
19,CC(C)Oc1cccc(CCC2CCN(C(=O)COc3ccccc3-c3cc(C#N)ccc3OCc3ccccc3)CC2)c1 [Compound 440],< 1000
20,CC(C)Oc1cccc(CCC2CCN(C(=O)COc3ccccc3-c3cc(C#N)ccc3O)CC2)c1 [Compound 441],< 1000
21,CC(C)Oc1cccc(CCC2CCN(C(=O)COc3ccccc3-c3ccc(C#N)cc3OCc3ccccc3)CC2)c1 [Compound 442],< 1000
22,CC(C)Oc1cccc(CCC2CCN(C(=O)COc3ccccc3-c3ccc(C#N)cc3O)CC2)c1 [Compound 443],< 1000
